Results as given in patent US10294202B2, “Pyrrolidinones as herbicides” (FMC Corporation, priority 2013, dated 2019).

How the values were obtained:
[1] = test system: oat, wild; assay: Test C pre-/postemergence herbicide test; assay type: in vivo, Avena fatua; details: Preemergence
Source text: Seeds of plant species selected from blackgrass (Alopecurus myosuroides), ryegrass, Italian (Italian ryegrass, Lolium multiflorum), wheat (winter wheat, Triticum aestivum), galium (catchweed bedstraw, Galium aparine), corn (Zea mays), crabgrass, large (large crabgrass, Digitaria sanguinalis), foxtail, giant (giant foxtail, Setaria faberii), johnsongrass (Sorghum halepense), lambsquarters (Chenopodium album), morningglory (Ipomoea coccinea), nutsedge, yellow (yellow nutsedge, Cyperus esculentus), pigweed (Amaranthus retroflexus), ragweed (common ragweed, Ambrosia elatior), soybean (Glycine max), barnyardgrass (Echinochloa crus-galli), oilseed rape (Brassica napus), waterhemp (common waterhemp, Amaranthus rudis), kochia (Kochia scoparia), oat, wild (wild oat, Avena fatua), surinam grass (Brachiaria decumbens), foxtail, green (green foxtail, Setaria viridis), goosegrass (Eleusine indica), bromegrass, downy (downy bromegrass, Bromus tectorum), nightshade (eastern black nightshade, Solanum ptycanthum), cocklebur (common cocklebur, Xanthium strumarium), cupgrass, woolly (woolly cupgrass, Eriochloa villosa), bermudagrass (Cynodon dactylon), sunflower, (common oilseed sunflower, Helianthus annuus), Russian thistle (Salsola kali) and velvetleaf (Abutilon theophrasti) were planted into a blend of loam soil and sand and treated preemergence with test chemicals formulated in a non-phytotoxic solvent mixture which included a surfactant. At the same time, plants selected from these crop and weed species and also barley (winter barley, Hordeum vulgare), […]), chickweed (common chickweed, Stellaria media), deadnettle (henbit deadnettle, Lamium amplexicaule), and canarygrass (littleseed canarygrass, Phalaris minor) were planted in pots containing Redi-Earth® planting medium (Scotts Company, 14111 Scottslawn Road, Marysville, Ohio 43041) comprising spaghnum peat moss, vermiculite, wetting agent and starter nutrients and treated with postemergence applications of test chemicals formulated in the same manner. Plants ranged in height from 2 to 18 cm (1- to 4-leaf stage) for postemergence treatments. Treated plants and controls were maintained in a greenhouse for 13 to 15 days, after which time all species were compared to controls and visually evaluated. Plant response ratings, summarized in Table C, are based on a scale of 0 to 100 where 0 is no effect and 100 is complete control. A dash (-) response means no test result.

[2] = test system: pigweed; assay: Test C pre-/postemergence herbicide test; assay type: in vivo, Amaranthus retroflexus; details: Preemergence; for Plant response rating (scale of 0 to 100), Pigweed: 250 g ai/ha
Summary of the method: (§1)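 Compound solutions contained surfactant in a non-phytotoxic solvent. These were sprayed onto pots of loam/sand sown with seeds, and onto young plants (2 to 18 cm, 1- to 4-leaf) in sphagnum peat–vermiculite mix. Visual injury scores (0 none, 100 complete control) were recorded after 13 to 15 days.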

[3] = test system: nutsedge, yellow; assay: Test C pre-/postemergence herbicide test; assay type: in vivo, Cyperus esculentus; details: Preemergence; for Plant response rating (scale of 0 to 100), Nutsedge, Yellow: 250 g ai/ha
Summary of the method: as §1

[4] = test system: ragweed; assay: Test C pre-/postemergence herbicide test; assay type: in vivo, Ambrosia elatior; details: Preemergence; for Plant response rating (scale of 0 to 100), Ragweed: 250 g ai/ha
Summary of the method: as §1

[5] = test system: velvetleaf; assay: Test C pre-/postemergence herbicide test; assay type: in vivo, Abutilon theophrasti; details: Preemergence; for Plant response rating (scale of 0 to 100), Velvetleaf: 250 g ai/ha
Summary of the method: as §1

[6] = test system: blackgrass; assay: Test C pre-/postemergence herbicide test; assay type: in vivo, Alopecurus myosuroides; details: Preemergence; for Plant response rating (scale of 0 to 100), Blackgrass: 250 g ai/ha
Summary of the method: as §1

[7] = test system: giant foxtail; assay: Test A pre-/postemergence herbicide test; assay type: in vivo, Setaria faberii
Summary of the method: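 Formulated compound (non-phytotoxic solvent, surfactant) sprayed pre- onto soil of seeded loam/sand pots or post- onto seedlings at 1–2 leaves; ~10 d greenhouse; 0–100 visual control rating versus untreated.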

[8] = test system: waterhemp; assay: Test C pre-/postemergence herbicide test; assay type: in vivo, Amaranthus rudis; details: Preemergence; for Plant response rating, Waterhemp: 125 g ai/ha; for Plant response rating (scale of 0 to 100), Waterhemp: 250 g ai/ha
Summary of the method: as §1

[9] = test system: ducksalad; assay: Test B flooded paddy test; assay type: in vivo, Heteranthera limosa; details: Flood, scale of 0 to 100 where 0 is no effect and 100 is complete control
Summary of the method: (§2)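 Paddy-water application at a 3 cm flood, young plants having two leaves. Water level maintained; greenhouse, 13–15 days; visual 0–100 control rating.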

[10] = test system: sedge, umbrella; assay: Test B flooded paddy test; assay type: in vivo, Cyperus difformis; details: Flood, scale of 0 to 100 where 0 is no effect and 100 is complete control
Summary of the method: as §2

[11] = test system: barnyardgrass; assay: Test B flooded paddy test; assay type: in vivo, Echinochloa crus-galli; details: Flood, scale of 0 to 100 where 0 is no effect and 100 is complete control
Summary of the method: as §2

[12] = test system: oilseed rape; assay: Test C pre-/postemergence herbicide test; assay type: in vivo, Brassica napus; details: Preemergence; for Plant response rating, Oilseed Rape: 125 g ai/ha; for Plant response rating (scale of 0 to 100), Oilseed Rape: 250 g ai/ha
Summary of the method: as §1

[13] = test system: rice; assay: Test B flooded paddy test; assay type: in vivo, Oryza sativa; details: Flood, scale of 0 to 100 where 0 is no effect and 100 is complete control
Summary of the method: as §2

[14] = 125 g ai/ha, scale 0 to 100 (0 no effect, 100 complete control)
[15] = Postemergence, 500 g ai/ha, 0 to 100 scale (0 no effect, 100 complete control)
[16] = 31 g ai/ha, scale 0 to 100, 0 is no effect and 100 is complete control
[17] = 62 g ai/ha, scale 0 to 100 (0 no effect, 100 complete control)
[18] = scale 0 to 100 (0 no effect, 100 complete control)
[19] = Preemergence, 125 g ai/ha, 0 to 100 scale where 0 is no effect and 100 is complete control

O=C1NCC(c2ccc(F)cc2)C1C(=O)Nc1ccccc1F (racemic) [Compound 16]
Plant response rating, Oat, Wild ([1]; 62 g ai/ha, scale 0 to 100): 5 | Plant response rating, Oat, Wild [1, 14]: 15 | Plant response rating, Pigweed ([2]; 62 g ai/ha, scale 0 to 100): 0 | Plant response rating, Pigweed [2, 14]: 0 | Plant response rating, Nutsedge, Yellow ([3]; 62 g ai/ha, scale 0 to 100): 0 | Plant response rating, Nutsedge, Yellow [3, 14]: 0 | Plant response rating, Ragweed ([4]; 62 g ai/ha, scale 0 to 100): 0 | Plant response rating, Ragweed [4, 14]: 0 | Plant response rating, Velvetleaf ([5]; 62 g ai/ha, scale 0 to 100): 0 | Plant response rating, Velvetleaf [5, 14]: 0 | Blackgrass plant response rating ([6]; 31 g ai/ha, scale 0 to 100 (0 no effect, 100 complete control)): 0 | Plant response rating, Blackgrass ([6]; 62 g ai/ha, scale 0 to 100): 5 | Plant response rating, Blackgrass [6, 14]: 10 | Plant response rating, Foxtail, Giant ([7]; Postemergence, 125 g ai/ha, 0 to 100 scale, 0 no effect, 100 complete control): 60 | Plant response rating, Foxtail, Giant [7, 15]: 90 | Foxtail, Giant plant response rating ([7]; Preemergence, 125 g ai/ha, visual rating on 0 to 100 scale (0 no effect, 100 complete control)): 90 | Plant response rating, Foxtail, Giant ([7]; preemergence, 500 g ai/ha, 0 to 100 scale): 90

O=C1NCC(c2cccc(C(F)(F)F)c2)C1C(=O)Nc1cccc(F)c1F (centres unmarked) [Compound 241]
Waterhemp plant response rating [8, 16]: 25 | Waterhemp plant response rating [8, 17]: 40 | Plant response rating, Waterhemp [8, 18]: 45 | Plant response rating (scale of 0 to 100), Waterhemp [8]: 60 | Pigweed plant response rating [2, 16]: 0 | Pigweed plant response rating [2, 17]: 0 | Plant response rating, Pigweed [2, 14]: 25 | Plant response rating (scale of 0 to 100), Pigweed [2]: 70 | Nutsedge, Yellow plant response rating [3, 16]: 0 | Nutsedge, Yellow plant response rating [3, 17]: 0 | Plant response rating, Nutsedge, Yellow [3, 14]: 0 | Plant response rating (scale of 0 to 100), Nutsedge, Yellow [3]: 0 | Ragweed plant response rating [4, 16]: 0 | Ragweed plant response rating [4, 17]: 25 | Plant response rating, Ragweed [4, 14]: 30 | Plant response rating (scale of 0 to 100), Ragweed [4]: 70 | Plant response rating, Ducksalad ([9]; 250 g ai/ha): 100 | Plant response rating, Ducksalad ([9]; 1000 g ai/ha): 100 | Velvetleaf plant response rating [5, 16]: 0 | Velvetleaf plant response rating [5, 17]: 0 | Plant response rating, Velvetleaf [5, 14]: 5 | Plant response rating (scale of 0 to 100), Velvetleaf [5]: 40 | Plant response rating, Sedge, Umbrella ([10]; 250 g ai/ha): 0 | Plant response rating, Sedge, Umbrella ([10]; 1000 g ai/ha): 20 | Plant response rating, Barnyardgrass ([11]; 250 g ai/ha): 55 | Plant response rating, Barnyardgrass ([11]; 1000 g ai/ha): 75 | Blackgrass plant response rating [6, 16]: 50 | Plant response rating, Blackgrass ([6]; 62 g ai/ha, scale 0 to 100): 70 | Plant response rating, Blackgrass [6, 14]: 80 | Plant response rating (scale of 0 to 100), Blackgrass [6]: 85 | Oilseed Rape plant response rating [12, 16]: 0 | Oilseed Rape plant response rating [12, 17]: 0 | Plant response rating, Oilseed Rape [12, 18]: 70 | Plant response rating (scale of 0 to 100), Oilseed Rape [12]: 85 | Plant response rating, Rice ([13]; 250 g ai/ha): 0 | Plant response rating, Rice ([13]; 1000 g ai/ha): 10 | Plant response rating, Foxtail, Giant ([7]; Postemergence, 125 g ai/ha, 0 to 100 scale, 0 is no effect, 100 is complete control): 80 | Plant response rating, Foxtail, Giant [7, 15]: 90 | Plant response rating, Foxtail, Giant [7, 19]: 90 | Plant response rating, Foxtail, Giant ([7]; preemergence, 500 g ai/ha, 0 to 100 scale, 0 is no effect and 100 is complete control): 90

O=C(Nc1ccccc1F)C1C(=S)NCC1c1cccc(C(F)(F)F)c1 (centres unmarked) [Compound 274]
Waterhemp plant response rating [8, 16]: 0 | Waterhemp plant response rating [8, 17]: 0 | Plant response rating (scale of 0 to 100), Waterhemp [8]: 0 | Pigweed plant response rating [2, 16]: 0 | Pigweed plant response rating [2, 17]: 0 | Plant response rating, Pigweed [2, 14]: 0 | Plant response rating (scale of 0 to 100), Pigweed [2]: 0 | Nutsedge, Yellow plant response rating [3, 16]: 0 | Nutsedge, Yellow plant response rating [3, 17]: 0 | Plant response rating, Nutsedge, Yellow [3, 14]: 0 | Plant response rating (scale of 0 to 100), Nutsedge, Yellow [3]: 0 | Ragweed plant response rating [4, 17]: 0 | Plant response rating, Ragweed [4, 14]: 0 | Plant response rating (scale of 0 to 100), Ragweed [4]: 0 | Plant response rating, Ducksalad ([9]; 500 g ai/ha): 35 | Velvetleaf plant response rating [5, 16]: 0 | Velvetleaf plant response rating [5, 17]: 20 | Plant response rating, Velvetleaf [5, 14]: 20 | Plant response rating (scale of 0 to 100), Velvetleaf [5]: 20 | Plant response rating, Sedge, Umbrella ([10]; 500 g ai/ha): 0 | Plant response rating, Barnyardgrass ([11]; 500 g ai/ha): 0 | Blackgrass plant response rating [6, 16]: 0 | Blackgrass plant response rating [6, 17]: 70 | Plant response rating, Blackgrass [6, 14]: 75 | Plant response rating (scale of 0 to 100), Blackgrass [6]: 90 | Oilseed Rape plant response rating [12, 16]: 0 | Oilseed Rape plant response rating [12, 17]: 0 | Plant response rating, Oilseed Rape [12, 18]: 5 | Plant response rating (scale of 0 to 100), Oilseed Rape [12]: 30 | Plant response rating, Rice ([13]; 500 g ai/ha): 0 | Plant response rating, Foxtail, Giant ([7]; Postemergence, 1000 g ai/ha, 0 to 100 scale (0 no effect, 100 complete control)): 90 | Plant response rating, Foxtail, Giant ([7]; preemergence, 1000 g ai/ha, 0 to 100 scale): 90

O=C1NCC(c2cccc(Br)c2)C1C(=O)Nc1ccccc1F (centres unmarked) [Compound 307]
Waterhemp plant response rating [8, 17]: 0 | Plant response rating, Waterhemp ([8]; scale 0 to 100): 0 | Plant response rating (scale of 0 to 100), Waterhemp [8]: 0 | Pigweed plant response rating [2, 16]: 0 | Pigweed plant response rating [2, 17]: 0 | Plant response rating, Pigweed ([2]; 125 g ai/ha, scale 0 to 100): 40 | Plant response rating (scale of 0 to 100), Pigweed [2]: 35 | Nutsedge, Yellow plant response rating [3, 16]: 0 | Nutsedge, Yellow plant response rating [3, 17]: 0 | Plant response rating, Nutsedge, Yellow ([3]; 125 g ai/ha, scale 0 to 100): 0 | Plant response rating (scale of 0 to 100), Nutsedge, Yellow [3]: 0 | Ragweed plant response rating [4, 17]: 0 | Plant response rating, Ragweed ([4]; 125 g ai/ha, scale 0 to 100): 0 | Plant response rating (scale of 0 to 100), Ragweed [4]: 35 | Plant response rating, Ducksalad ([9]; 500 g ai/ha): 98 | Velvetleaf plant response rating [5, 17]: 0 | Plant response rating, Velvetleaf ([5]; 125 g ai/ha, scale 0 to 100): 0 | Plant response rating (scale of 0 to 100), Velvetleaf [5]: 0 | Plant response rating, Sedge, Umbrella ([10]; 500 g ai/ha): 0 | Plant response rating, Barnyardgrass ([11]; 500 g ai/ha): 65 | Blackgrass plant response rating [6, 16]: 0 | Blackgrass plant response rating [6, 17]: 0 | Plant response rating, Blackgrass ([6]; 125 g ai/ha, scale 0 to 100): 10 | Plant response rating (scale of 0 to 100), Blackgrass [6]: 5 | Oilseed Rape plant response rating [12, 16]: 0 | Oilseed Rape plant response rating [12, 17]: 0 | Plant response rating, Oilseed Rape ([12]; scale 0 to 100): 0 | Plant response rating (scale of 0 to 100), Oilseed Rape [12]: 5 | Plant response rating, Rice ([13]; 500 g ai/ha): 0 | Plant response rating, Foxtail, Giant ([7]; Postemergence, 125 g ai/ha, visual rating on 0 to 100 scale (0 no effect, 100 complete control), approx. 10 days): 70 | Plant response rating, Foxtail, Giant [7, 15]: 80 | Plant response rating, Foxtail, Giant [7, 19]: 80 | Foxtail, Giant plant response rating ([7]; Preemergence, 500 g ai/ha, visual rating on 0 to 100 scale (0 no effect, 100 complete control)): 90
